From patent publication US20020049193A1, “N-linked sulfonamides of heterocyclic thioesters” (GPI NIL HOLDINGS, INC., priority 1996, published 2002)
Like-named read-outs stand apart in the source and are kept apart here.

What was measured:
[1] = test system: chick dorsal root ganglia; test: Chick dorsal root ganglion cultures and neurite outgrowth; type: cell-based; details: Gallus gallus, 48 h; read-out: ED50 (the source's name)
Protocol: Dorsal root ganglia were dissected from chick embryos of ten day gestation. Whole ganglion explants were cultured on thin layer Matrigel-coated 12 well plates with Liebovitz L15 plus high glucose media supplemented with 2 mM glutamine and 10% fetal calf serum, and also containing 10 μM cytosine β-D arabinofuranoside (Ara C) at 37° C. in an environment containing 5% CO2. Twenty-four hours later, the DRGs were treated with various immunophilin ligands. Forty-eight hours after drug treatment, the ganglia were visualized under phase contrast or Hoffman Modulation contrast with a Zeiss Axiovert inverted microscope. Photomicrographs of the explants were made, and neurite outgrowth was quantitated. Neurites longer than the DRG diameter were counted as positive, with total number of neurites quantitated per each experimental condition. Three to four DRGs are cultured per well, and each treatment was performed in duplicate.
The data for these experiments for representative compounds are presented in Table II(c) under the column “ED50”.

[2] = target: FKBP12 (Homo sapiens, UniProt P62942); test: Ki test procedure: inhibition of peptidyl-prolyl isomerase (rotamase) activity, chymotrypsin-coupled assay; type: biochemical; details: apparent Ki
FKBP12, sequence (P62942 whole entry, species assumed): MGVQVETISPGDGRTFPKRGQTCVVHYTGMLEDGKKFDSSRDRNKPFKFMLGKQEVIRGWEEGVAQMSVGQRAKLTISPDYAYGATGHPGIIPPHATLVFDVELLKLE
Description: The inhibition of the prolyl peptidyl cis-trans isomerase activity of FKBP may be measured as an indicator of this affinity.
The compounds of the invention are shown to inhibit peptidyl-prolyl isomerase (rotamase) activity and can be evaluated by known methods described in the literature (Harding, et al., Nature, 1989, 341:758-760; Holt et al. J. Am. Chem. Soc., 115: 9923-9938). The cis-trans isomerization of an alanine-proline bond in a model substrate, N-succinyl-Ala-Ala-Pro-Phe-p-nitroanilide, is monitored spectrophotometrically in a chymotrypsin-coupled assay, which releases para-nitroanilide from the trans form of the substrate. The inhibition of this reaction caused by the addition of different concentrations of inhibitor is determined, and the data is analyzed as a change in first-order rate constant as a function of inhibitor concentration to yield the apparent Ki values.
In a plastic cuvette are added […] of ice cold assay buffer (25 mM HEPES, pH 7.8, 100 mM NaCl), 10 mL of FKBP (2.5 mM in 10 mM Tris-Cl pH 7.5, 100 mM NaCl, 1 mM dithiothreitol), 25 mL of chymotrypsin (50 mg/ml in 1 mM HCl) and […] of test compound at various concentrations in dimethyl sulfoxide. The reaction is initiated by the addition of 5 mL of substrate (succinyl-Ala-Phe-Pro-Phe-para-nitroanilide, 5 mg/mL in 2.35 mM LiCl in trifluoroethanol).
The absorbance at 390 nm versus time is monitored for 90 seconds using a spectrophotometer and the rate constants are determined from the absorbance versus time data files.
The data for these experiments for representative compounds are presented in Tables II(a) and II(b) under the column “Ki”.

[3] = test system: TH-positive dopaminergic neurons in the striatum; test: MPTP model of Parkinson's Disease; type: in vivo; details: CD1 mice, MPTP 30 mg/kg i.p. 5 days, test compound 4 mg/kg s.c. 10 days, striatum at 18 days
Protocol: MPTP lesioning of dopaminergic neurons in mice is used as an animal model of Parkinson's Disease. Four week old male CD1 white mice are dosed i.p. with 30 mg/kg of MPTP for 5 days. Test compounds (4 mg/kg), or vehicle, are administered s.c. along with the MPTP for 5 days, as well as for an additional 5 days following cessation of MPTP treatment. At 18 days following MPTP treatment, the animals are sacrificed and the striata dissected and perfusion-fixed.
Immunostaining is performed on saggital and coronal brain sections using anti-tyrosine hydroxylase […] to quantitate survival and recovery of dopaminergic neurons. In animals treated with MPTP and vehicle, a substantial loss of functional dopaminergic terminals is observed as compared to non-lesioned animals. Lesioned animals receiving test compounds show a significant recovery of TH-stained dopaminergic neurons. This model presents quantitation for the recovery of TH-positive dopaminergic neurons in the striatum of animals receiving the compounds of the present invention. Data for representative control and lesioned animals not receiving the test drugs is also presented against the data from the animals receiving the compounds of the present invention in Table III.

Row | SMILES | EC50 [1] | Ki ([2]; numerical, read-out: Ki) | Ki ([2]; ranked potency, read-out: Kl) | % Recovery Tyrosine Hydroxylase [3]
1 | O=C(SC(CCCc1ccccc1)CCCc1ccccc1)C1CCCCN1S(=O)(=O)Cc1ccccc1 (stereo not shown) [Compound 16] | 51 to 200 nM | – | – | –
2 | COc1ccc(CCCSC(=O)[C@@H]2CCCCN2S(=O)(=O)c2ccc(C)cc2)cc1 (racemic) [Compound 26, 3-(4-Methoxyphenyl)propyl 1-[(4-methylphenyl)sulfonyl]-2-piperidinecarbothioate] | – | 659 nM | > 500 nM | –
3 | Cc1ccc(S(=O)(=O)N2CCCC2C(=O)SCCc2ccccc2)cc1 (stereo not shown) [Compound 3] | 1 to 50 nM | – | – | –
4 | O=C(SCCCCc1ccccc1)C1CCCCN1S(=O)(=O)Cc1ccccc1 (stereo not shown) [Compound 11] | 1 to 50 nM | – | – | –
5 | O=C(SCCCCc1ccccc1)C1CCCCN1S(=O)(=O)c1ccccc1 (stereo not shown) [Compound 10] | 1 to 50 nM | – | – | –
6 | COc1ccc(CCCSC(=O)[C@@H]2CCCN2S(=O)(=O)c2ccccc2)cc1 [Compound 4, 3-(4-Methoxyphenyl)propyl (2S)-1-(phenylsulfonyl)-2-pyrrolidinecarbothioate] | 51 to 200 nM | 204 nM | 201 to 500 nM | 42%
7 | Cc1ccc(S(=O)(=O)N2CCCCC2C(=O)SCCCc2ccc(C(F)(F)F)cc2)cc1 (racemic) [Compound 29, 3-[4-(Trifluoromethyl)phenyl]propyl 1-[(4-methylphenyl)sulfonyl]-2-piperidinecarbothioate] | – | 69 nM | 51 to 200 nM | –
8 | O=C(SC(CCCc1ccccc1)CCCc1ccccc1)C1CCCCN1S(=O)(=O)c1ccccc1 (stereo not shown) [Compound 15] | < 1 nM | – | – | –
9 | O=C(SCCCc1cccc2ccccc12)[C@@H]1CCCN1S(=O)(=O)Cc1ccccc1 [Compound 24, 3-(1-Naphthyl)propyl (2S)-1-(benzylsulfonyl)-2-pyrrolidinecarbothioate] | – | 671 nM | > 500 nM | 40%
10 | O=C(SCCCc1ccccc1)[C@@H]1CCCN1S(=O)(=O)Cc1ccccc1 [Compound 23, 3-Phenylpropyl (2S)-1-(benzylsulfonyl)-2-pyrrolidinecarbothioate] | – | – | 51 to 200 nM | 80%
11 | O=C(SCCC(c1ccccc1)c1ccccc1)C1CCCN1S(=O)(=O)Cc1ccccc1 (stereo not shown) [Compound 8] | < 1 nM | – | – | –
12 | COc1cc(S(=O)(=O)N2CCCCC2C(=O)SCCCCc2ccccc2)cc(OC)c1OC (stereo not shown) [Compound 13] | < 1 nM | – | – | –
13 | CCc1ccc(S(=O)(=O)N2CCC[C@H]2C(=O)SCCc2ccccc2)cc1 [Compound 21, Phenethyl (2S)-1-[(4-ethylphenyl)sulfonyl]-2-pyrrolidinecarbothioate] | – | 730 nM | > 500 nM | –
14 | O=C(SCCC(c1ccccc1)c1ccccc1)C1CCCN1S(=O)(=O)c1ccccc1 (stereo not shown) [Compound 7] | 1 to 50 nM | – | – | –
15 | COc1ccc(CCCSC(=O)C2CCCCN2S(=O)(=O)Cc2ccccc2)cc1 (racemic) [Compound 27, 3-(4-Methoxyphenyl)propyl 1-(benzylsulfonyl)-2-piperidinecarbothioate] | – | 82 nM | – | –
16 | Cc1ccc(S(=O)(=O)N2CCCCC2C(=O)SCCCCc2ccccc2)cc1 (stereo not shown) [Compound 12] | 1 to 50 nM | – | – | –
17 | COc1ccc(CCCSC(=O)[C@@H]2CCCN2S(=O)(=O)c2ccc(C)cc2)cc1 [Compound 6, 3-(4-Methoxyphenyl)propyl (2S)-1-[(4-methylphenyl)sulfonyl]-2-pyrrolidinecarbothioate] | 51 to 200 nM | 145 nM | 51 to 200 nM | 37%
18 | O=C(SCCc1ccccc1)C1CCCN1S(=O)(=O)Cc1ccccc1 (stereo not shown) [Compound 2] | 1 to 50 nM | – | – | –
19 | COc1ccc(CCCSC(=O)[C@@H]2CCCN2S(=O)(=O)Cc2ccccc2)cc1 [Compound 5, 3-(4-Methoxyphenyl)propyl (2S)-1-(benzylsulfonyl)-2-pyrrolidinecarbothioate] | 1 to 50 nM | 22 nM | 1 to 50 nM | –
20 | COc1ccc(CCCSC(=O)C2CCCCN2S(=O)(=O)c2ccccc2)cc1 (racemic) [Compound 28, 3-(4-Methoxyphenyl)propyl 1-(phenylsulfonyl)-2-piperidinecarbothioate] | – | 196 nM | 51 to 200 nM | –
21 | O=C(SCCc1ccccc1)C1CCCN1S(=O)(=O)c1ccccc1 (stereo not shown) [Compound 1] | < 1 nM | – | – | –
22 | O=C(SCCCCc1ccccc1)C1CCCCN1S(=O)(=O)C1CCCCC1 (stereo not shown) [Compound 14] | 1 to 50 nM | – | – | –
